Patent US20260265195A1, “SARM1 MODULATORS, PREPARATIONS, AND USES THEREOF” (SIRONAX LTD, priority 2022, published 2026)

Molecular target: T1, SARM1 (50-724) (Homo sapiens, UniProt Q6SZW1)
T1 construct: Purified SARM1 (50-724) with a final concentration of 2 nM
T1 sequence (Q6SZW1 50-724): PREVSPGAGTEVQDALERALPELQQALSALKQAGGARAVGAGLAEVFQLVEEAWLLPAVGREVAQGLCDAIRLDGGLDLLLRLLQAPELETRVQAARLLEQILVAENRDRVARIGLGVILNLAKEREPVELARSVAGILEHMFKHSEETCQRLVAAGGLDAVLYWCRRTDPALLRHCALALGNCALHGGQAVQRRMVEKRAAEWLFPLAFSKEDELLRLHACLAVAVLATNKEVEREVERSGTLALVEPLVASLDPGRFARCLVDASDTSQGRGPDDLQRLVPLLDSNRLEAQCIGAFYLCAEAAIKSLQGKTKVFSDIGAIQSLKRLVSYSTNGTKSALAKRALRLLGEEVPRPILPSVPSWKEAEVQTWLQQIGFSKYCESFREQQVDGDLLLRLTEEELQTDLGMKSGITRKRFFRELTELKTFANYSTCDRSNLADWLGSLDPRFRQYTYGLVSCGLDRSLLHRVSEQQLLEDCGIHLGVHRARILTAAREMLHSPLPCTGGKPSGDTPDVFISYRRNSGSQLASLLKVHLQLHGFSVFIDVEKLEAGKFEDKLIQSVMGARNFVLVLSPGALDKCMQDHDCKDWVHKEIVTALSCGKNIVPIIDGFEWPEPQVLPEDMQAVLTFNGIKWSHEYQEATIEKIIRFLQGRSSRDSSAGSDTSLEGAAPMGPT
Assay: SARM1 (50-724) enzymatic assay (NMN-activated NAD+ hydrolysis, LC-MS/MS readout)
Type: biochemical
Conditions: purified SARM1 (50-724) 2 nM, 200 μM NMN activator, 100 μM NAD+ substrate, 1 h at room temperature, read-out: IC50 (SARM1 inhibitory activity)
Procedure, shortened: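 Purified human SARM1 (50-724), 2 nM final in DPBS, pre-incubated 15 min at RT with compound (1% DMSO), then started with 200 μM NMN activator and 100 μM NAD+. After 1 h at RT, quenched with 70% acetonitrile; analysed by LC-MS/MS.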

Row | Structure (SMILES) | IC50 [nM]
1 | CC1(O)CC(N(C(=O)c2nc3cc(C(F)(F)F)ccc3[nH]2)c2cccc(F)c2Cl)C1 (stereo not shown) [Compound 239, N-(2-chloro-3-fluorophenyl)-N-(3-hydroxy-3-methylcyclobutyl)-5-(trifluoromethyl)-1H-benzo[d]imidazole-2-carboxamide] | 101 to 500
2 | O=C(c1nc2cc(C(F)(F)F)ccc2[nH]1)N(CC1(F)COC1)c1cccc(F)c1Cl [Compound 186, N-(2-chloro-3-fluorophenyl)-N-((3-fluorooxetan-3-yl)methyl)-5-(trifluoromethyl)-1H-benzo[d]imidazole-2-carboxamide] | ≤ 100
3 | Cc1cccc(N(C)C(=O)c2nc3cc(C(F)(F)F)ccc3[nH]2)c1Cl [Compound 125, N-(2-chloro-3-methylphenyl)-N-methyl-5-(trifluoromethyl)-1H-benzo[d]imidazole-2-carboxamide] | ≤ 100
4 | Cc1ccc2[nH]c(C(=O)N(C)c3ccc(Cl)c(C(F)(F)F)c3)c(CO)c2c1 [Compound 11, N-(4-chloro-3-(trifluoromethyl)phenyl)-3-(hydroxymethyl)-N,5-dimethyl-1H-indole-2-carboxamide] | ≥ 1000
5 | O=C(c1nc2cc(C(F)(F)F)ccc2[nH]1)N(CCO)c1c(Cl)cccc1Cl [Compound 159, N-(2,6-dichlorophenyl)-N-(2-hydroxyethyl)-5-(trifluoromethyl)-1H-benzo[d]imidazole-2-carboxamide] | 101 to 500
6 | CNCCN(C(=O)c1nc2cc(C)ccc2[nH]1)C1CCCC1 [Compound 63, N-cyclopentyl-5-methyl-N-(2-(methylamino)ethyl)-1H-benzo[d]imidazol-2-carboxamide] | ≥ 1000
7 | Cn1nc(N(CC2COC2)C(=O)c2nc3cc(C(F)(F)F)ccc3[nH]2)c(Cl)c1Cl [Compound 111, N-(4,5-dichloro-1-methyl-1H-pyrazol-3-yl)-N-(oxetan-3-ylmethyl)-5-(trifluoromethyl)-1H-benzo[d]imidazole-2-carboxamide] | ≤ 100
8 | O=C(c1nc2cc(C(F)(F)F)ccc2[nH]1)N(CCN1CCC1)c1cccc(Cl)c1Cl [Compound 149, N-(2-(azetidin-1-yl)ethyl)-N-(2,3-dichlorophenyl)-6-(trifluoromethyl)-1H-benzo[d]imidazole-2-carboxamide] | 101 to 500
9 | CN(C(=O)c1nc2c(S(C)(=O)=O)cccc2[nH]1)C1CCCC1 [Compound 99, N-cyclopentyl-N-methyl-4-(methylsulfonyl)-1H-benzo[d]imidazole-2-carboxamide] | ≥ 1000
10 | CC(c1cn[nH]c1)c1ccc2[nH]c(C(=O)N(CCO)c3cccc(Cl)c3Cl)nc2c1 (racemic) [Compound 189] | ≤ 100
11 | O=C(c1nc2cc(C(F)(F)F)ccc2[nH]1)N(CCN1CC(F)(F)C1)c1cccc(Cl)c1Cl [Compound 116, N-(2,3-dichlorophenyl)-N-(2-(3,3-difluoroazetidin-1-yl)ethyl)-5-(trifluoromethyl)-1H-benzo[d]imidazole-2-carboxamide] | ≤ 100
12 | O=C(c1nc2cc(C(F)(F)F)cc(F)c2[nH]1)N(CC(F)(F)CO)c1cccc(F)c1Cl [Compound 211] | ≤ 100
13 | Cc1ccc2[nH]c(C(=O)N(C)C3CCCC3)c(CCO)c2c1 [Compound 36, N-cyclopentyl-3-(2-hydroxyethyl)-N,5-dimethyl-1H-indole-2-carboxamide] | 101 to 500
14 | CNC(=O)CN(C(=O)c1nc2cc(C(F)(F)F)ccc2[nH]1)c1cccc(Cl)c1Cl [Compound 182, N-(2,3-dichlorophenyl)-N-(2-(methylamino)-2-oxoethyl)-5-(trifluoromethyl)-1H-benzo[d]imidazole-2-carboxamide] | ≤ 100
15 | CN(C(=O)c1nc2c(C3COC3)cccc2[nH]1)C1CCCC1 [Compound 113, N-cyclopentyl-N-methyl-4-(oxetan-3-yl)-1H-benzo[d]imidazole-2-carboxamide] | ≥ 1000
16 | COc1cc(OC)c2c(CO)c(C(=O)N(C)C3CCCC3)[nH]c2c1 [Compound 34, N-cyclopentyl-3-(hydroxymethyl)-4,6-dimethoxy-N-methyl-1H-indole-2-carboxamide] | ≥ 1000
17 | O=C(c1nc2cc(C(F)(F)F)ccc2[nH]1)N(CC1(F)COC1)c1cccc(Cl)c1Cl [Compound 135, N-(2,3-dichlorophenyl)-N-((3-fluorooxetan-3-yl)methyl)-5-(trifluoromethyl)-1H-benzo[d]imidazole-2-carboxamido] | ≤ 100

Row | Structure (SMILES) | IC50 [nM]
18 | Cc1ccc2c(CO)c(C(=O)N(C)C3CCCC3)[nH]c2c1 [Compound 17, N-cyclopentyl-3-(hydroxymethyl)-N,6-dimethyl-1H-indole-2-carboxamide] | ≥ 1000
19 | Cc1cccc(N(CCO)C(=O)c2nc3cc(C(F)(F)F)ccc3[nH]2)c1Cl [Compound 151, N-(2-chloro-3-methylphenyl)-N-(2-hydroxyethyl)-5-(trifluoromethyl)-1H-benzo[d]imidazole-2-carboxamide] | ≤ 100
20 | O=C1NC(CN(C(=O)c2nc3cc(C(F)(F)F)ccc3[nH]2)c2cccc(F)c2Cl)CO1 (racemic) [Compound 238, N-(2-chloro-3-fluorophenyl)-N-((2-oxooxazolidin-4-yl)methyl)-5-(trifluoromethyl)-1H-benzo[d]imidazole-2-carboxamide] | ≤ 100
21 | Cc1cccc2[nH]c(C(=O)N(C)C3CCCC3)c(CO)c12 [Compound 21, N-cyclopenty1-3-(hydroxymethyl)-N,4-dimethyl-1H-indole-2-carboxamide] | ≥ 1000
22 | CN(C(=O)c1[nH]c2cc(Cl)cc(Cl)c2c1CO)C1CCCC1 [Compound 31, 4,6-dichloro-N-cyclopentyl-3-(hydroxymethyl)-N-methyl-1H-indole-2-carboxamide] | ≥ 1000
23 | Cc1ccc2[nH]c(C(=O)N(C)C3CCCC3)nc2c1C [Compound 92, N-cyclopentyl-N,6,7-trimethyl-1H-benzo[d]imidazole-2-carboxamide] | 101 to 500
24 | Cc1ccc2[nH]c(C(=O)N3CCCCC3)c(CNc3ccccn3)c2c1 [Compound 87, (5-methyl-3-((pyridin-2-ylamino)methyl)-1H-indol-2-yl)(piperidin-1-yl)methanone] | ≥ 1000
25 | COCC1(CN(C(=O)c2nc3cc(C(F)(F)F)ccc3[nH]2)c2cccc(Cl)c2Cl)COC1 [Compound 200] | ≤ 100
26 | O=C(c1nc2cc(C(F)(F)F)ccc2[nH]1)N(CC(F)(F)CO)c1cccc(Cl)c1Cl [Compound 112, N-(2,3-dichlorophenyl)-N-(2,2-difluoro-3-hydroxypropyl)-5-(trifluoromethyl)-1H-benzo[d]imidazole-2-carboxamide] | ≤ 100
27 | CC(C)(O)c1ccc2[nH]c(C(=O)N(CCO)c3cccc(Cl)c3Cl)nc2c1 [Compound 150, N-(2,3-dichlorophenyl)-N-(2-hydroxyethyl)-5-(2-hydroxypropan-2-yl)-1H-benzo[d]imidazole-2-carboxamide] | ≤ 100
28 | Cc1ccc2[nH]c(C(=O)N(C)C3CCCC3)c(C#N)c2c1 [Compound 70, 3-cyano-N-cyclopentyl-N,5-dimethyl-1H-indole-2-carboxamide] | 101 to 500
29 | [2H]C([2H])([2H])N(C(=O)c1nc2cc(C(F)(F)F)ccc2[nH]1)c1cncc(Cl)c1C [Compound 166, N-(5-chloro-4-methylpyridin-3-yl)-N-(methyl-d3)-5-(trifluoromethyl)-1H-benzo[d]imidazole-2-carboxamido] | ≤ 100
30 | CCOC(=O)C(F)(F)CN(C(=O)c1nc2cc(C3CC3)ccc2[nH]1)c1cccc(F)c1Cl [Compound 209] | ≤ 100
31 | CC1(c2ccc3[nH]c(C(=O)N(CC(F)(F)CO)c4cccc(F)c4Cl)nc3c2)COC1 [Compound 223, N-(2-chloro-3-fluorophenyl)-N-(2,2-difluoro-3-hydroxypropyl)-5-(3-methyloxetan-3-yl)-1H-benzo[d]imidazole-2-carboxamide] | ≤ 100
32 | CS(=O)(=O)CCCN(C(=O)c1nc2cc(C(F)(F)F)ccc2[nH]1)c1cccc(Cl)c1Cl [Compound 129, N-(2,3-dichlorophenyl)-N-(3-(methylsulfonyl)propyl)-5-(trifluoromethyl)-1H-benzo[d]imidazole-2-carboxamide] | ≤ 100
33 | Cc1c(Cl)cncc1N(CC1(F)COC1)C(=O)c1nc2cc(C(F)(F)F)ccc2[nH]1 [Compound 184, N-(5-chloro-4-methylpyridin-3-yl)-N-((3-fluorooxetan-3-yl)methyl)-5-(trifluoromethyl)-1H-benzo[d]imidazole-2-carboxamide] | 101 to 500
34 | O=C(c1nc2cc(C(F)(F)F)ccc2[nH]1)N(CC1(CO)COC1)c1cccc(Cl)c1Cl [Compound 174, N-(2,3-dichlorophenyl)-N-((3-(hydroxymethyl)oxetan-3-yl)methyl)-5-(trifluoromethyl)-1H-benzo[d]imidazole-2-carboxamido] | ≤ 100
